Measured values taken from PubChem BioAssay (NCI).
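Cells were grown in 96-well plates and exposed to each compound for 48 hours at five concentrations; endpoints were interpolated linearly between bracketing concentrations, or set to the highest concentration if not reached. GI50 is the concentration that inhibits growth by half. Definition used: TGI = concentration required for complete inhibition of growth.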

Key:
Assay in all cases: DTP human tumour cell line panel, 48 h
[1] = tested on: NCI-H522 lung
[2] = tested on: UO-31 renal
[3] = tested on: MDA-MB-231 breast
[4] = tested on: SF-268 CNS
[5] = tested on: SW-620 colon
[6] = tested on: U251 CNS
[7] = tested on: OVCAR-3 ovarian
[8] = tested on: HS 578T breast
[9] = tested on: DU-145 prostate
[10] = tested on: HCC-2998 colon
[11] = tested on: COLO 205 colon
[12] = tested on: MDA-MB-435
[13] = tested on: SN12C renal
[14] = tested on: UACC-62 melanoma
[15] = tested on: SF-539 CNS
[16] = tested on: HCT-116 colon
[17] = tested on: NCI-H226 lung
[18] = tested on: IGROV1 ovarian
[19] = tested on: PC-3 prostate
[20] = tested on: BT-549 breast
[21] = tested on: SF-295 CNS
[22] = tested on: M14 melanoma
[23] = tested on: 786-0 renal
[24] = tested on: CCRF-CEM leukemia
[25] = tested on: TK-10 renal
[26] = tested on: NCI-H23 lung
[27] = tested on: HOP-62 NSCLC
[28] = tested on: OVCAR-4 ovarian
[29] = tested on: HT29 colon
[30] = tested on: OVCAR-5 ovarian
[31] = tested on: OVCAR-8 ovarian
[32] = tested on: KM12 colon
[33] = tested on: SNB-19 CNS
[34] = tested on: MALME-3M melanoma
[35] = tested on: EKVX NSCLC
[36] = tested on: UACC-257 melanoma
[37] = tested on: HCT-15 colon
[38] = tested on: SK-OV-3 ovarian
[39] = tested on: LOX IMVI melanoma
[40] = tested on: NCI/ADR-RES ovarian
[41] = tested on: SNB-75 CNS
[42] = tested on: ACHN renal
[43] = tested on: A498 renal
[44] = tested on: RXF 393 renal
[45] = tested on: SK-MEL-5 melanoma
[46] = tested on: RPMI-8226 leukemia
[47] = tested on: SK-MEL-2 melanoma
[48] = tested on: SK-MEL-28 melanoma
[49] = tested on: HOP-92 NSCLC
[50] = tested on: A549 NSCLC
[51] = tested on: NCI-H460 lung
[52] = tested on: CAKI-1 renal
[53] = tested on: MCF7 breast
[54] = tested on: T-47D breast
[55] = tested on: SR leukemia

In the case of O=C(c1ccccc1)c1cc2ccccc2o1, the GI50 [1] is reported as 82.1 µM, the TGI [1] is reported as > 100 µM and the GI50 [2] is reported as 21.3 µM. The TGI [2] was > 100 µM, the GI50 [3] was 91.9 µM and the TGI [3] was > 100 µM. The GI50 [4] was 70.3 µM, the TGI [4] was > 100 µM and the GI50 [5] was 80 µM. The TGI [5] was > 100 µM, the GI50 [6] was 54.5 µM and the TGI [6] was > 100 µM. For the same compound, the GI50 [7] was 59.6 µM, the TGI [7] was > 100 µM and the GI50 [8] was 37.5 µM. For the same compound, the TGI [8] was > 100 µM, the GI50 [9] was 73.6 µM and the TGI [9] was > 100 µM. For the same compound, the GI50 [10] was > 100 µM, the TGI [10] was > 100 µM and the GI50 [11] was > 100 µM. The TGI [11] was > 100 µM, the GI50 [12] was > 100 µM and the TGI [12] was > 100 µM. For the same compound, the GI50 [13] was > 100 µM, the TGI [13] was > 100 µM and the GI50 [14] was > 100 µM. For the same compound, the TGI [14] was > 100 µM, the GI50 [15] was > 100 µM and the TGI [15] was > 100 µM. For the same compound, the GI50 [16] was 62.7 µM, the TGI [16] was > 100 µM and the GI50 [17] was > 100 µM. The TGI [17] was > 100 µM, the GI50 [18] was 25.4 µM and the TGI [18] was > 100 µM. For the same compound, the GI50 [19] was 85.2 µM, the TGI [19] was > 100 µM and the GI50 [20] was 73 µM. The TGI [20] was > 100 µM, the GI50 [21] was 71.7 µM and the TGI [21] was > 100 µM. The GI50 [22] was > 100 µM, the TGI [22] was > 100 µM and the GI50 [23] was > 100 µM. For the same compound, the TGI [23] was > 100 µM, the GI50 [24] was > 100 µM and the TGI [24] was > 100 µM. The GI50 [25] was > 100 µM, the TGI [25] was > 100 µM and the GI50 [26] was > 100 µM. For the same compound, the TGI [26] was > 100 µM, the GI50 [27] was > 100 µM and the TGI [27] was > 100 µM. The GI50 [28] was > 100 µM, the TGI [28] was > 100 µM and the GI50 [29] was 76.1 µM. The TGI [29] was > 100 µM, the GI50 [30] was > 100 µM and the TGI [30] was > 100 µM. For the same compound, the GI50 [31] was > 100 µM, the TGI [31] was > 100 µM and the GI50 [32] was > 100 µM. The TGI [32] was > 100 µM, the GI50 [33] was > 100 µM and the TGI [33] was > 100 µM. For the same compound, the GI50 [34] was > 100 µM, the TGI [34] was > 100 µM and the GI50 [35] was 32.6 µM. For the same compound, the TGI [35] was > 100 µM, the GI50 [36] was 77.9 µM and the TGI [36] was > 100 µM. For the same compound, the GI50 [37] was > 100 µM, the TGI [37] was > 100 µM and the GI50 [38] was > 100 µM. The TGI [38] was > 100 µM, the GI50 [39] was 73.6 µM and the TGI [39] was > 100 µM. The GI50 [40] was 77.4 µM, the TGI [40] was > 100 µM and the GI50 [41] was 63.2 µM. The TGI [41] was > 100 µM, the GI50 [42] was > 100 µM and the TGI [42] was > 100 µM. The GI50 [43] was 39.9 µM, the TGI [43] was > 100 µM and the GI50 [44] was 88 µM. The TGI [44] was > 100 µM, the GI50 [45] was 80 µM and the TGI [45] was > 100 µM. The GI50 [46] was 91.8 µM, the TGI [46] was > 100 µM and the GI50 [47] was > 100 µM. The TGI [47] was > 100 µM, the GI50 [48] was > 100 µM and the TGI [48] was > 100 µM. For the same compound, the GI50 [49] was 26.7 µM, the TGI [49] was > 100 µM and the GI50 [50] was 95 µM. The TGI [50] was > 100 µM, the GI50 [51] was > 100 µM and the TGI [51] was > 100 µM. For the same compound, the GI50 [52] was 67 µM, the TGI [52] was > 100 µM and the GI50 [53] was > 100 µM. For the same compound, the TGI [53] was > 100 µM, the GI50 [54] was 83.3 µM and the TGI [54] was > 100 µM.

With C=CCn1c(C)nc2ccc(Nc3nc(Nc4ccc5nc(C)n(CC=C)c5c4)c4ccccc4n3)cc21 the GI50 [3] was 1.34 µM, the TGI [3] was 2.62 µM and the GI50 [9] was 1.85 µM. It also gave a TGI [9] of 3.27 µM, a GI50 [10] of 1.72 µM and a TGI [10] of 3.09 µM. For the same compound, the GI50 [13] was 1.62 µM, the TGI [13] was 2.98 µM and the GI50 [14] was 1.55 µM. It also gave a TGI [14] of 2.89 µM, a GI50 [15] of 1.71 µM and a TGI [15] of 3.12 µM. The GI50 [30] was 1.7 µM, the TGI [30] was 3.09 µM and the GI50 [55] was 1.52 µM. The TGI [55] was 3.98 µM, the GI50 [38] was 1.72 µM and the TGI [38] was 3.09 µM. The GI50 [40] was 2.22 µM, the TGI [40] was 6.07 µM and the GI50 [42] was 1.64 µM. For the same compound, the TGI [42] was 3.01 µM.
